Where “and” joins values, the source holds several entries; their conditions need not be identical. Equal values may be shown once.
Legend:
Assay type in all cases: cell-based, human
MOLM13 cells = test: MTT cell viability assay; details: Fig S7b
Description: (§1) FBS and 1% penicillin/streptomycin. […] Media was changed on day 3 or 4 and compounds were resupplied. […] Cell suspensions (100 μL) were transferred to the 96-well plates for each sample in quadruplicate at the time of media change. At day 7, 10 µL of MTT reagent (M6494, Molecular Probes™) was added to each well of the 96 well plate and incubated at 37 °C for 4 h. The formazan was then solubilized by adding 100 µL acidified 10% SDS solution and incubated at 37 °C overnight. Plates were read for absorbance at 570 nm using a PHERAstar BMG microplate reader. The experiments were performed two times in quadruplicates with calculation of mean and SD for each condition. Data were analyzed in Prism 8.0.0 to obtain GI50 values.
(§2) Supplementary Figure 7. […] (a)
(§3) Titration curves from the MTT cell viability assay performed after 4, 7, and 11 (or 10) days of
(§4) Titration curves from the MTT cell viability assay performed after 7 days of treatment of KOPN8 ,
(§5) MOLM13 and MV4;11 cell lines harboring MLL1 translocation (MLL1-r) or K562 cell line (non-
(§6) Representative graphs are shown
(§7) from two independent MTT experiments performed for each cell line.

MV4;11 cells = test: MTT cell viability assay; details: for MV4;11 % activity: Fig S7a
Description: as §1, §2, §3, §4, §5, §6, §7

K562 cells = test: MTT cell viability assay; details: for % activity: Fig S7b
Description: (§8) Human leukemia cells K562, MV4;11 and RS4;11 (purchased from ATCC) and KOPN8, MOLM13 (purchased from DSMZ) were cultured in RPMI 1640 (Invitrogen) supplemented with 10% heat inactivated (h.i.) FBS and 1% penicillin/streptomycin (Invitrogen). SET2 cells (purchased from DSMZ) were cultured in RPMI 1640 supplemented with 20% h.i. FBS and 1% penicillin/streptomycin. Cells were plated at 1 × 10^5 to 2 × 10^5 cells/mL depending on cell line and treated with 0.25% DMSO or varying concentrations of compounds and incubated at 37 °C, 5% CO2 incubator for 7 days. Media was changed on day 3 or 4 and compounds were resupplied. […] Cell suspensions (100 μL) were transferred to the 96-well plates for each sample in quadruplicate at the time of media change. At day 7, 10 µL of MTT reagent (M6494, Molecular Probes™) was added to each well of the 96 well plate and incubated at 37 °C for 4 h. The formazan was then solubilized by adding 100 µL acidified 10% SDS solution and incubated at 37 °C overnight. Plates were read for absorbance at 570 nm using a PHERAstar BMG microplate reader. The experiments were performed two times in quadruplicates with calculation of mean and SD for each condition. Data were analyzed in Prism 8.0.0 to obtain GI50 values.
as §2, §3, §4, §5, §6
(§9) from two independent MTT experiments performed for each cell line. GI50 values correspond to […]

KOPN8 cells = test: MTT cell viability assay; details: Fig S7a
Description: as §8, §2, §3, §4, §5, §6, §9

[1] = test system: MLL leukemia cells (MV4;11, MOLM13, KOPN8, RS4;11); test: MTT cell viability assay, MLL leukemia cells as a group; details: Homo sapiens, MLL leukemia cells
Description: as §8
Supplementary Figure 4. Cell viability assay for AS-6 in MLL leukemia cell lines. Titration curves from the MTT cell viability assay performed after 7 days of treatment of human MLL1- […]
replicates. Representative graphs are shown from two independent MTT experiments performed […]
as §2
Titration curves from the MTT cell viability assay performed after 4, 7, and 11 (or 10) days of […]
Titration curves from the MTT cell viability assay performed after 7 days of treatment of KOPN8 , MOLM13 and MV4;11 cell lines harboring MLL1 translocation (MLL1-r) or K562 cell line (non- […]
Representative graphs are shown from two independent MTT experiments performed for each cell line. GI50 values correspond to […]

NC(=S)c1cccc(-c2cn(C3CCN(S(=O)(=O)C(F)(F)F)CC3)c3cc(CNC(=O)C4CNC4)ccc23)c1 [AS-85]
% activity (MOLM13 cells; MOLM-13, log[AS-85] -4.60206): 46.6646% and 47.2766% and 46.175% and 47.0318% | % activity (MOLM13 cells; MOLM-13, log[AS-85] -4.90309): 81.426% and 94.7674% and 77.6316% and 82.4051% | % activity (MOLM13 cells; MOLM-13, log[AS-85] -5.20412): 87.0563% and 95.9914% and 92.6867% and 98.1946% | % activity (MOLM13 cells; MOLM-13, log[AS-85] -5.50515): 82.6499% and 85.9547% and 94.1555% and 88.7699% | % activity (MOLM13 cells; MOLM-13, log[AS-85] -5.80618): 80.9364% and 84.3635% and 82.1603% and 93.6659% | % activity (MOLM13 cells; MOLM-13, log[AS-85] -6.10721): 97.5826% and 103.213% and 93.6659% and 105.539% | % activity (MOLM13 cells; MOLM-13, log[AS-85] -6.40824): 70.6548% and 70.0428% and 76.1628% and 72.1236% | MV4;11 % activity (MV4;11 cells; log[AS-85] -4.60206, d4): 15.9329% and 16.3522% and 18.0892% and 16.4121% | MV4;11 % activity (MV4;11 cells; log[AS-85] -4.60206, d7): 5.045% and 5.128% and 5.211% | MV4;11 % activity (MV4;11 cells; log[AS-85] -4.60206, d11): 1.161% and 1.032% and 1.118% | MV4;11 % activity (MV4;11 cells; log[AS-85] -4.90309, d4): 70.8595% and 67.0859% and 71.758% and 64.1509% | MV4;11 % activity (MV4;11 cells; log[AS-85] -4.90309, d7): 25.0571% and 25.9705% and 23.8115% and 22.3998% | MV4;11 % activity (MV4;11 cells; log[AS-85] -4.90309, d11): 9.6743% and 10.0613% and 9.029% and 8.943% | MV4;11 % activity (MV4;11 cells; log[AS-85] -5.20412, d4): 102.965% and 99.1914% and 99.9102% and 86.1336% | MV4;11 % activity (MV4;11 cells; log[AS-85] -5.20412, d7): 53.1243% and 51.7127% and 52.7922% and 54.6191% | MV4;11 % activity (MV4;11 cells; log[AS-85] -5.20412, d11): 37.1063% and 36.8053% and 36.9343% and 41.621% | MV4;11 % activity (MV4;11 cells; log[AS-85] -5.50515, d4): 92.5427% and 88.3498% and 97.8736% and 88.7691% | MV4;11 % activity (MV4;11 cells; log[AS-85] -5.50515, d7): 76.7075% and 69.8983% and 73.8011% and 68.8188% | MV4;11 % activity (MV4;11 cells; log[AS-85] -5.50515, d11): 72.8797% and 78.2113% and 64.4953% and 71.1168% | MV4;11 % activity (MV4;11 cells; log[AS-85] -5.80618, d11): 77.7384% and 83.5429% and 90.8524% | MV4;11 % activity (MV4;11 cells; log[AS-85] -6.10721, d4): 94.4594% and 94.1599% and 94.5792% and 108.955% | MV4;11 % activity (MV4;11 cells; log[AS-85] -6.10721, d7): 101.951% and 92.1528% and 106.186% and 104.11% | MV4;11 % activity (MV4;11 cells; log[AS-85] -6.10721, d11): 89.8205% and 93.8192% and 105.127% and 95.5821% | MV4;11 % activity (MV4;11 cells; log[AS-85] -6.40824, d4): 98.1731% and 105.9% and 87.9305% and 107.996% | MV4;11 % activity (MV4;11 cells; log[AS-85] -6.40824, d7): 98.879% and 95.8896% and 100.374% and 104.858% | MV4;11 % activity (MV4;11 cells; log[AS-85] -6.40824, d11): 115.404% and 96.872% and 95.3671% and 92.3573% | % activity (MV4;11 cells; Fig S7b, MV4;11, log[AS-85] -5.80618): 90.492% and 84.4301% and 90.3259% and 90.8242% | % activity (K562 cells; K562, log[AS-85] -4.60206): 94.8724% and 99.1495% and 96.3791% and 94.0462% | % activity (K562 cells; K562, log[AS-85] -4.90309): 126.464% and 120.486% and 116.938% and 123.451% | % activity (K562 cells; K562, log[AS-85] -5.20412): 111.154% and 105.225% and 103.767% and 109.259% | % activity (K562 cells; K562, log[AS-85] -5.50515): 104.836% and 103.329% and 104.35% and 109.745% | % activity (K562 cells; K562, log[AS-85] -5.80618): 94.1434% and 95.2126% and 95.6501% and 103.183% | % activity (K562 cells; K562, log[AS-85] -6.10721): 95.2612% and 103.524% and 101.142% and 100.073% | % activity (K562 cells; K562, log[AS-85] -6.40824): 94.0462% and 95.8931% and 100.705% and 97.4484% | effect on growth/proliferation of K562 cells (K562 cells; leukemia cells without MLL1 translocations): no effect | KOPN8 % activity (KOPN8 cells; log[AS-85] -4.60206, d4): 16.3539% and 14.6687% and 8.541% and 8.847% | KOPN8 % activity (KOPN8 cells; log[AS-85] -4.60206, d7): 5.4864% | KOPN8 % activity (KOPN8 cells; log[AS-85] -4.60206, d10): 12.6028% and 11.8131% and 12.208% | KOPN8 % activity (KOPN8 cells; log[AS-85] -4.90309, d4): 78.3991% and 80.3907% and 79.1651% and 80.3906% | KOPN8 % activity (KOPN8 cells; log[AS-85] -4.90309, d7): 47.9023% and 50.2997% and 49.1932% and 51.4062% | KOPN8 % activity (KOPN8 cells; log[AS-85] -4.90309, d10): 23.001% and 25.765% and 16.1566% and 29.977% | KOPN8 % activity (KOPN8 cells; log[AS-85] -5.20412, d4): 76.2543% and 85.293% and 81.9226% and 91.2677% | KOPN8 % activity (KOPN8 cells; log[AS-85] -5.20412, d7): 72.4297% and 74.2739% and 78.5154% and 71.5076% | KOPN8 % activity (KOPN8 cells; log[AS-85] -5.20412, d10): 57.6176% and 47.8776% and 61.0398% and 75.3866% | KOPN8 % activity (KOPN8 cells; log[AS-85] -5.50515, d4): 81.7694% and 85.9058% and 95.8637% and 96.7828% | KOPN8 % activity (KOPN8 cells; log[AS-85] -5.50515, d7): 82.5726% and 92.5311% and 77.2245% and 78.5154% | KOPN8 % activity (KOPN8 cells; log[AS-85] -5.50515, d10): 103.817% and 88.6805% and 64.9885% and 80.7832% | KOPN8 % activity (KOPN8 cells; log[AS-85] -5.80618, d4): 78.2459% and 90.8081% and 100.766% and 94.0253% | KOPN8 % activity (KOPN8 cells; log[AS-85] -5.80618, d7): 80.7284% and 79.9908% and 94.5597% and 75.0115% | KOPN8 % activity (KOPN8 cells; log[AS-85] -5.80618, d10): 93.8137% and 85.6532% and 79.9934% and 79.7302% | KOPN8 % activity (KOPN8 cells; log[AS-85] -6.10721, d4): 86.825% and 91.4209% and 95.8637% and 91.5741% | KOPN8 % activity (KOPN8 cells; log[AS-85] -6.10721, d7): 99.9078% and 107.284% and 86.6298% and 85.5233% | KOPN8 % activity (KOPN8 cells; log[AS-85] -6.10721, d10): 118.032% and 101.579% and 87.2326% and 93.1556% | KOPN8 % activity (KOPN8 cells; log[AS-85] -6.40824, d4): 98.6212% and 103.37% and 102.911% and 95.0977% | KOPN8 % activity (KOPN8 cells; log[AS-85] -6.40824, d7): 100.461% and 105.072% and 99.7234% and 94.7441% | KOPN8 % activity (KOPN8 cells; log[AS-85] -6.40824, d10): 81.3096% and 91.971% and 84.7318% and 80.9148% | GI50 [1]: 5 to 25 µM

— article PMC8121805, “Discovery of first-in-class inhibitors of ASH1L histone methyltransferase with anti-leukemic activity” (Nature Communications, 2021)
